Results taken from PMC4830356 (ACS chemical neuroscience, 2015).

Assays:
human KOR [1] = biological target: T1, human KOR (Homo sapiens, UniProt P41145); experiment: In-cell western ERK1/2 phosphorylation in CHO-hKOR cells; format: cell-based
human KOR [2] = experiment: Bias analysis by fitting to the operational model; settings: relative to U69,593; for ΔΔLogR(G−ERK): G protein coupling vs ERK1/2 phosphorylation; for ΔΔLogR(G−ERK) / ΔΔLogR(G−βarr2): ± SEM; for ΔΔLogR(G−βarr2): G protein coupling vs βarrestin2 recruitment; for bias factor (10^ΔΔLogR) G/ERK: antilog of ΔΔLogR(G−ERK); for bias factor (10^ΔΔLogR) G/βarr2: antilog of ΔΔLogR(G−βarr2)
human KOR [3] = biological target: T1, human KOR; experiment: βarrestin2 recruitment, high content imaging in U2OS-hKOR-βarr2-GFP cells; format: cell-based
human KOR [4] = biological target: T1, human KOR; experiment: [35S]GTPγS coupling; format: biochemical

T1 sequence (P41145 whole entry): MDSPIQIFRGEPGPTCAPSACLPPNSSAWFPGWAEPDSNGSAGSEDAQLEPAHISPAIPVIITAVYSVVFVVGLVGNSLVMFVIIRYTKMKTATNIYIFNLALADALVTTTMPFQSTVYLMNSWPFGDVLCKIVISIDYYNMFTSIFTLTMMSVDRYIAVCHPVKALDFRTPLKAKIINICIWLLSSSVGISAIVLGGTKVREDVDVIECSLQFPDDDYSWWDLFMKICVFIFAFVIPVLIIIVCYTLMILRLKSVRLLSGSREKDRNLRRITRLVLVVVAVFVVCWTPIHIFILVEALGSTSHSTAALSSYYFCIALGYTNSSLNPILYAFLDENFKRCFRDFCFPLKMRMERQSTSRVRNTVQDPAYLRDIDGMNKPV

Structure (SMILES) | EC50 (human KOR [1]) [nM] | ERK1/2 phosphorylation % U69,593 at 10 μM (human KOR [1]) | ERK1/2 phosphorylation EMAX, % of max U69,593 (human KOR [1]) | ΔΔLogR(G−ERK) (human KOR [2]) | ΔΔLogR(G−βarr2) (human KOR [2]) | bias factor (10^ΔΔLogR) G/ERK (human KOR [2]) | bias factor (10^ΔΔLogR) G/βarr2 (human KOR [2]) | EC50 (human KOR [3]) [nM] | βarrestin2 assay % U69,593 at 10 μM (human KOR [3]) | βarrestin2 assay EMAX, % of max U69,593 (human KOR [3]) | EC50 (human KOR [4]) [nM] | G protein assay EMAX, % of max U69,593 (human KOR [4])
FC(F)(F)c1ccc(Cl)c(CSc2nnc(-c3ccccn3)n2Cc2ccco2)c1 [1.1, 2-(5-((2-Chloro-5-(trifluoromethyl)benzyl)thio)-4-(furan-2-yl-methyl)-4H-1,2,4-triazol-3-yl)pyridine] | 242 ± 46.9 | 114 ± 7 % U69,593 | 120 ± 10 % of max U69,593 | 2.0 ± 0.19 | 1.7 ± 0.19 | 93 | 47 | 8720 ± 2180 | 29 ± 5 % U69,593 | 56 ± 5 % of max U69,593 | 31.8 ± 6.4 | 98 ± 1 % of max U69,593
FC(F)(F)c1ccc(Cl)c(CSc2nnc(-c3ccccn3)n2Cc2cccs2)c1 [1.2, 2-(5-((2-Chloro-5-(trifluoromethyl)benzyl)thio)-4-(thiophen-2-ylmethyl)-4H-1,2,4-triazol-3-yl)pyridine] | 594 ± 115 | 128 ± 6 % U69,593 | 139 ± 9 % of max U69,593 | 2.6 ± 0.19 |  | 419 | 122 | 6250 ± 1440 | 94 ± 8 % U69,593 | 147 ± 25 % of max U69,593 | 27.2 ± 3.5 | 98 ± 1 % of max U69,593
FC(F)(F)c1ccc(Cl)c(CSc2nnc(-c3ccccn3)n2Cc2cccnc2)c1 [1.3, 2-(5-((2-Chloro-5-(trifluoromethyl)benzyl)thio)-4-(pyridin-3-ylmethyl)-4H-1,2,4-triazol-3-yl)pyridine] | 108 ± 24.5 | 107 ± 7 % U69,593 | 114 ± 8 % of max U69,593 | 1.0 ± 0.19 | 1.2 ± 0.20 | 9 | 15 | 10100 ± 3250 | 38 ± 5 % U69,593 | 65 ± 6 % of max U69,593 | 115 ± 8.9 | 97 ± 1 % of max U69,593
Ic1ccc(CSc2nnc(-c3ccccn3)n2Cc2ccco2)cc1 [2.1, 2-(5-((4-Iodobenzyl)thio)-4-(furan-2-ylmethyl)-4H-1,2,4-triazol-3-yl)pyridine] | 222 ± 22.9 | 113 ± 8 % U69,593 | 131 ± 10 % of max U69,593 | 1.9 ± 0.19 | 1.7 ± 0.19 | 88 | 49 | 13500 ± 8290 | 105 ± 2 % U69,593 | 228 ± 96 % of max U69,593 | 30.3 ± 4.5 | 95 ± 1 % of max U69,593
Ic1ccc(CSc2nnc(-c3ccccn3)n2Cc2cccs2)cc1 [2.2, 2-(5-((4-Iodobenzyl)thio)-4-(thiophen-2-ylmethyl)-4H-1,2,4-triazol-3-yl)pyridine] | 789 ± 159 | 131 ± 4 % U69,593 | 143 ± 4 % of max U69,593 | 2.5 ± 0.19 | 1.5 ± 0.19 | 304 | 33 | 3570 ± 680 | 94 ± 9 % U69,593 | 123 ± 19 % of max U69,593 | 40.3 ± 8.5 | 100 ± 1 % of max U69,593
Ic1ccc(CSc2nnc(-c3ccccn3)n2Cc2cccnc2)cc1 [2.3, 2-(5-((4-Iodobenzyl)thio)-4-(pyridin-3-ylmethyl)-4H-1,2,4-tri-azol-3-yl)pyridine] |  | 110 ± 8 % U69,593 | 109 ± 6 % of max U69,593 | 1.2 ± 0.22 | 1.4 ± 0.22 | 16 | 25 |  | 46 ± 3 % U69,593 | 101 ± 7 % of max U69,593 |  | 98 ± 3 % of max U69,593
Brc1ccc(CSc2nnc(-c3ccccn3)n2Cc2ccco2)cc1 [3.1, 2-(5-((4-Bromobenzyl)thio)-4-(furan-2-ylmethyl)-4H-1,2,4-tri-azol-3-yl)pyridine] | 340 ± 25.1 | 114 ± 4 % U69,593 | 125 ± 2 % of max U69,593 | 1.7 ± 0.20 | 1.2 ± 0.20 | 47 | 17 | > 31000 | 58 ± 8 % U69,593 |  | 84.7 ± 18.4 | 91 ± 3 % of max U69,593
Brc1ccc(CSc2nnc(-c3ccccn3)n2Cc2cccs2)cc1 [3.2, 2-(5-((4-Bromobenzyl)thio)-4-(thiophen-2-ylmethyl)-4H-1,2,4-triazol-3-yl)pyridine] | 672 ± 113 | 135 ± 8 % U69,593 | 149 ± 13 % of max U69,593 | 1.7 ± 0.22 | 0.9 ± 0.22 | 46 | 7 | 1940 ± 90.9 | 87 ± 3 % U69,593 | 94 ± 2 % of max U69,593 | 66.6 ± 15.1 | 98 ± 1 % of max U69,593
Brc1ccc(CSc2nnc(-c3ccccn3)n2Cc2cccnc2)cc1 [3.3, 2-(5-((4-Bromobenzyl)thio)-4-(pyridin-3-ylmethyl)-4H-1,2,4-triazol-3-yl)pyridine] | 227 ± 40.1 | 112 ± 6 % U69,593 | 117 ± 7 % of max U69,593 | 1.1 ± 0.19 | 1.6 ± 0.22 | 14 | 37 | > 31000 | 10 ± 7 % U69,593 |  | 149 ± 11.5 | 94 ± 4 % of max U69,593
